Earlier results as cited in publication PMC4955775 (Bioorganic & medicinal chemistry letters, 2016).
[ ]: non-standard residue; d: D form. Dmt = Cc1cc(O)cc(C)c1C[C@H](N)C(=O)O; Tic = O=C(O)[C@@H]1Cc2ccccc2CN1

Tests used:
[1] = tested on: μ receptor
[2] = tested on: δ receptor

H-[Dmt][Tic]FF-NH2 [DIPP-NH2]
fold increased binding affinity at μ receptor compared to TIPP-NH2 [1]: 65 fold
fold increased binding affinity at δ receptor compared to TIPP-NH2 [2]: 25 fold

Cc1cc(O)cc(C)c1C[C@H](N)C(=O)N[C@H](CCCNC(=N)N)C(=O)N[C@@H](Cc1ccccc1)C(=O)N[C@@H](CCCCN)C(N)=O [Compound 5, H-Dmt-D-Arg-Phe-Lys-NH2]
duration of the antinociceptive effect, times longer than morphine: 4 times
